The source of these data is ChEMBL document CHEMBL1136036, “Targeting thrombin and factor VIIa: design, synthesis, and inhibitory activity of functionally relevant indolizidinones” (Bioorg Med Chem Lett, 2002).

pIC50: −log10 of the molar value.

The target of one experiment is T1, Coagulation factor VII (Homo sapiens, UniProt P08709).
T1 sequence (P08709 whole entry): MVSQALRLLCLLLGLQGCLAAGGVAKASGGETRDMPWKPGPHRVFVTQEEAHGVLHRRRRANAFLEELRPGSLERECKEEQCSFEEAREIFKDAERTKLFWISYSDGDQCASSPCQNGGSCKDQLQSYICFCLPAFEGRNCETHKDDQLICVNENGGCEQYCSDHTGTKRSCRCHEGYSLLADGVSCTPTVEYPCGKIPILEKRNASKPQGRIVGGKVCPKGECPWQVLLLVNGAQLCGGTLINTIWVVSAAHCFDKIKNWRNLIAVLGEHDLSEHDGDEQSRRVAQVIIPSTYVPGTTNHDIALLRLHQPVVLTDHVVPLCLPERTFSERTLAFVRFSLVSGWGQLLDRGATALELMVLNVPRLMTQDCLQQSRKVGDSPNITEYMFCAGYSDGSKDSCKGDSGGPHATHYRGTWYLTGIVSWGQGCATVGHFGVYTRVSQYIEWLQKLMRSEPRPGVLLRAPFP
Briefly: Compound was tested for inhibitory activity against Coagulation factor VIIa.

Experiment [1] has as its target T2, Coagulation factor XI (Homo sapiens, UniProt P03951). Briefly: Compound was tested for inhibitory activity against Coagulation factor XIa.
Another experiment addresses Plasminogen (Homo sapiens, UniProt P00747). As to the kind of experiment: Compound was tested for inhibitory activity against Plasmin.
For the next experiment, the target named is Prothrombin (Homo sapiens, UniProt P00734). Briefly: Compound was tested for inhibitory activity against Thrombin.
For experiment [2], the target named is T2, Coagulation factor XI. Briefly: Compound was tested for inhibitory activity against Coagulation factor XIa at 8 uM.

T2 sequence (P03951 19-387 limits assumed): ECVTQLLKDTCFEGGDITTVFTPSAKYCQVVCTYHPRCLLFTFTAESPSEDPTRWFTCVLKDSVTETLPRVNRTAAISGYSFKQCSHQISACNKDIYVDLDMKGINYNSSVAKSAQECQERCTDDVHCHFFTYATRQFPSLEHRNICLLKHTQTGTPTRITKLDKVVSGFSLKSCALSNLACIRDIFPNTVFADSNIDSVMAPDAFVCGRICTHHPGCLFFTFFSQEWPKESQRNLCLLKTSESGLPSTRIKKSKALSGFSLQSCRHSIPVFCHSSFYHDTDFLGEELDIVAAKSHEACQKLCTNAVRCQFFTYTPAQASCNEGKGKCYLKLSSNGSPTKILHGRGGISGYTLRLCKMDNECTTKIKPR
T2 sequence (P03951 388-625 limits assumed): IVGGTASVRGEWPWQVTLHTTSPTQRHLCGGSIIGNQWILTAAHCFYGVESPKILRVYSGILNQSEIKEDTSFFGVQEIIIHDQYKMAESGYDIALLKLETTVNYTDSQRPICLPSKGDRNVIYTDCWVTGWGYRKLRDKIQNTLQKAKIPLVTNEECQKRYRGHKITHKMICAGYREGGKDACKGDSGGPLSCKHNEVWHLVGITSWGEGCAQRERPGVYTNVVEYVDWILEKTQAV
Plasminogen, sequence (P00747 97-580 limits assumed): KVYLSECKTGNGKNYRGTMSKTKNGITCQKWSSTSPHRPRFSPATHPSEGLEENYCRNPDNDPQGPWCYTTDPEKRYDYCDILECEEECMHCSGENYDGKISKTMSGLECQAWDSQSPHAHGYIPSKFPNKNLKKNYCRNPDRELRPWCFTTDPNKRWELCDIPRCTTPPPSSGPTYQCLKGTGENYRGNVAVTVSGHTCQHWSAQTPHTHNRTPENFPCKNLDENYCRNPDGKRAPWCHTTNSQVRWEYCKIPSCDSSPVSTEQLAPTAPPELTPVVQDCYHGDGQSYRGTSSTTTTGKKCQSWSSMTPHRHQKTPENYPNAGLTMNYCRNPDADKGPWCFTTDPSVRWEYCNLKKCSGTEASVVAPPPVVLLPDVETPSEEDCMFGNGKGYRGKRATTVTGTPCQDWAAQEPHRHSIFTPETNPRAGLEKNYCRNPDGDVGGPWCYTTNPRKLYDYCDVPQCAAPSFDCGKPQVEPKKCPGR
Plasminogen, sequence (P00747 581-810 limits assumed): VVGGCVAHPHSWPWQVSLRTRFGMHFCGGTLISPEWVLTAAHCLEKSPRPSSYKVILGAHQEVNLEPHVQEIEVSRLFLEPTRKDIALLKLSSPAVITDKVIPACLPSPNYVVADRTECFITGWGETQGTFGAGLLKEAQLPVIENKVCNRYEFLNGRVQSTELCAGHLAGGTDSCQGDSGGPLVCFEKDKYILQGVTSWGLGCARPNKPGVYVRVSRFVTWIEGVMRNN

By pIC50 is commonly meant the negative decadic logarithm of the IC50, by convention in mol/L. Read a low pIC50 as a large IC50. In turn, `CC[C@@H]1CC(C(=O)NCc2ccc(C(=N)N)cc2)N2C(=O)[C@@](N)(CC3=CCCCC3)C[C@H](OC)[C@H]12` (stereo partly specified) gave a pIC50 on Coagulation factor VII of 3.96.
As for `CC[C@@H]1CC(C(=O)NCc2ccc(C(=N)N)cc2)N2C(=O)[C@](N)(CC3=CCCCC3)C[C@H](OC)[C@H]12` (stereo partly specified), the pIC50 was 5.34 at Coagulation factor VII, less than 3.88 against Coagulation factor XI [1], 3.85 at Plasminogen and 6.77 at Prothrombin.
On to `CO[C@H]1C[C@@](O)(Cc2ccccc2)C(=O)N2C(C(=O)NCc3ccc(C(=N)N)cc3)CC[C@@H]12` (stereo partly specified), for which the pIC50 at Coagulation factor VII is 6.28; at Coagulation factor XI [1], 4.46; against Plasminogen, 4.15; on Prothrombin it was 6.96.
As a reminder, the inhibition is the percentage by which the read-out fell short of the control. Read a high inhibition as strong suppression. On Coagulation factor VII, `N=C(N)c1ccc(CNC(=O)C2CC[C@H]3CC[C@@](O)(Cc4ccccc4)C(=O)N23)cc1` (stereo partly specified) showed a pIC50 of 5.96. The compound further showed an inhibition against Coagulation factor XI [2] of 78%.
Turning to `C[C@]1(O)CC[C@@H]2CCC(C(=O)NCc3ccc(C(=N)N)cc3)N2C1=O` (stereo partly specified), the pIC50 is less than 5.00 on Coagulation factor VII and 6.57 against Prothrombin. In addition, the inhibition against Coagulation factor XI [2] is 20%.
Take `CC[C@@H]1CC(C(=O)NCc2ccc(C(=N)N)cc2)N2C(=O)[C@](N)(Cc3ccccc3)C[C@H](OC)[C@H]12` (stereo partly specified): the pIC50 on Coagulation factor VII is 6.38; against Coagulation factor XI [1] it was less than 3.88; on Plasminogen, 4.96.
In the case of `C=C(C)C[C@]1(N)C[C@H](OC)[C@@H]2[C@H](CC)CC(C(=O)NCc3ccc(C(=N)N)cc3)N2C1=O` (stereo partly specified), the pIC50 against Coagulation factor VII was 5.80; at Coagulation factor XI [1] it was less than 3.88; against Plasminogen, 4.43; against Prothrombin it was 6.42.
